Test results taken from article PMC6736568, “Discovery of Novel Anti-cryptosporidial Activities From Natural Products by in vitro High-Throughput Phenotypic Screening” (Frontiers in Microbiology, 2019).
Read-outs that look alike come from different tables or passages of the source.

Tests used:
Cryptosporidium parvum = test: qRT-PCR assay of the growth of C. parvum in vitro in HCT-8 host cells (primary and secondary screening, EC50); assay type: cell-based; conditions: for % Inhibition (3.3 uM): secondary screening at 3.3 uM
[1] = primary screening at 10 uM, from Hs18S ΔCT
[2] = primary screening at 10 uM, treated vs control

| Compound | Inhibition (%) (Cryptosporidium parvum; primary screening at 10 uM) | Cytotoxicity (%) (HCT-8 host cells (Hs18S); [1]) | Hs18S ΔCT (HCT-8 host cells (Hs18S); [2]) | also measured |
| --- | --- | --- | --- | --- |
| Cl.c1ccc2c(c1)CN1CCCC1=N2 [DEOXYPEGANINE HYDROCHLORIDE] | 36.29 |  |  | Hs18S ΔCT (HCT-8 host cells (Hs18S)): -0.06; Cytotoxicity (%) (HCT-8 host cells (Hs18S); 10 µM): -4.6 |
| C[N+](C)(C)CC(O)CC(=O)O.[Cl-] (stereo not drawn) [CARNITINE (dl) HYDROCHLORIDE] | -3.41 | -73.4 | -0.79 |  |
| AVOCADYNOFURAN | -19.78 | 1.4 | 0.02 |  |
| C[C@H](CCC(=O)O)[C@H]1CC[C@H]2[C@@H]3C[C@H](O)[C@@H]4C[C@H](O)CC[C@]4(C)[C@H]3CC[C@]12C [alpha-HYDROXYDEOXYCHOLIC ACID] | -6.93 | -43.0 | -0.52 |  |
| VERATRINE SULFATE | 25.98 |  |  | Hs18S ΔCT (HCT-8 host cells (Hs18S)): -0.06; Cytotoxicity (%) (HCT-8 host cells (Hs18S); 10 µM): -4.3 |
| C=CCSC[C@H](N)C(=O)O [L-DEOXYALLIIN] | 38.80 | -21.9 | -0.29 |  |
| N[C@@H](CSCSC[C@H](N)C(=O)O)C(=O)O [DJENKOLIC ACID] | 23.33 | 0.2 | 0.00 |  |
| IVERMECTIN | 78.97 | -3.4 | -0.05 | % Inhibition (3.3 uM) (Cryptosporidium parvum): 6% |
| COc1cc2c(cc1O)CCNC2C (stereo not shown) [SALSOLINE] | -1.38 | -0.9 | -0.01 |  |
| SPIRAMYCIN | -12.26 |  |  | Cytotoxicity (%) (HCT-8 host cells (Hs18S); 10 µM): -12.2% |
| COc1cc(OC)c2c(=O)c(OC)c(-c3ccccc3)oc2c1 [GALANGIN TRIMETHYL ETHER] | -18.22 | 8.8 | 0.13 |  |
| CN(C)CC(=O)OC[C@@H](O)[C@@H](O)[C@H](O)[C@@H](O)C(=O)[O-].[Na+] [PANGAMIC ACID SODIUM] | -4.04 |  |  | Cytotoxicity (%) (HCT-8 host cells (Hs18S); 10 µM): -61.0% |
| COc1ccc(-c2oc3ccccc3c(=O)c2OC)cc1 [3,4'-DIMETHOXYFLAVONE] | -22.87 | 22.3 | 0.36 |  |
| COc1ccc(-c2coc3c4c(c(CC=C(C)C)c(O)c3c2=O)OC(C)(C)C=C4)cc1 [OSAJIN 4'-METHYL ETHER] | -21.87 | -2.7 | -0.04 |  |
| C=C[C@@]1(C)CC(=O)[C@@]2(O)[C@](C)(O1)[C@@H](O)[C@@H](O)C1C(C)(C)CC[C@H](O)[C@@]12C (stereo partly shown) [DESACETYLCOLFORSIN] | -6.53 | 14.3 | 0.22 |  |
| COC(=O)C1=CO[C@@H](C)[C@H]2CN3CC[C@]4(C(=O)Nc5ccccc54)[C@@H]3C[C@H]12 [MITRAPHYLLINE] | 41.31 | 11.1 | 0.17 |  |
| O=c1cc(-c2ccc(O)cc2)oc2ccc(O)cc12 [6,4'-DIHYDROXYFLAVONE] | 28.18 | 17.9 | 0.28 |  |
| COC(=O)/C=C/c1cc(OC)c(OC)c(OC)c1 [METHYL TRIMETHOXYCINNAMATE] | -24.35 | 2.8 | 0.04 |  |
| COc1ccc(/C=C/c2cc(O)cc(O[C@@H]3O[C@H](CO)[C@@H](O)[C@H](O)[C@H]3O)c2)cc1 [PICEID METHYL ETHER] | 15.82 | 30.3 | 0.52 |  |
| COc1ccc(-c2coc3cc(OC)ccc3c2=O)cc1 [7,4'-DIMETHOXYISOFLAVONE] | 1.31 | 3.0 | 0.04 |  |
| CC(=O)O[C@H]1CC[C@@]2(C)C(=CC=C3[C@@H]4CC[C@H]([C@H](C)/C=C/[C@H](C)C(C)C)[C@@]4(C)CC[C@@H]32)C1 [ERGOSTEROL ACETATE] | -10.68 | 3.7 | 0.06 |  |
| COLISTIN SULFATE | 33.43 | 0.4 | 0.01 |  |
| C=CC[S+]([O-])C[C@H](N)C(=O)O (mixture of isomers) [L(+/-)-ALLIIN] | 21.98 | -12.5 | -0.17 |  |
| Br.CN1[C@H]2C[C@H](OC(=O)[C@H](CO)c3ccccc3)C[C@@H]1[C@@H](O)C2 [ANISODAMINE HYDROBROMIDE] | 5.51 | -32.6 | -0.41 |  |

| Compound | Inhibition (%) (Cryptosporidium parvum; primary screening at 10 uM) | Cytotoxicity (%) (HCT-8 host cells (Hs18S); [1]) | Hs18S ΔCT (HCT-8 host cells (Hs18S); [2]) | also measured |
| --- | --- | --- | --- | --- |
| O.OC[C@H]1O[C@@H](O[C@H]2[C@H](O)[C@@H](O)[C@@H](O)O[C@@H]2CO)[C@H](O)[C@@H](O)[C@H]1O [LACTOSE MONOHYDRATE] | 31.71 |  | 0.02 |  |
| CC1(C)C=Cc2c(c3c(c4c(=O)c(-c5ccc(O)cc5)coc24)OC(C)(C)CC3)O1 [ISOOSAJIN] | 96.83 | -18.5 | -0.24 | % Inhibition (3.3 uM) (Cryptosporidium parvum): 39% |
| O=c1cc(-c2ccccc2O)oc2cc(O)ccc12 [7,2'-DIHYDROXYFLAVONE] | -16.96 | 12.6 | 0.19 |  |
| COc1cc(O)c(C(C)=O)c(O)c1 [4-O-METHYLPHLORACETOPHENONE] | 2.57 | 10.4 | 0.16 |  |
| CC(=O)O.Cc1cc2c(C(C)C)c(O)c(O)c(C=O)c2c(O)c1-c1c(C)cc2c(C(C)C)c(O)c(O)c(C=O)c2c1O [GOSSYPOL-ACETIC ACID COMPLEX] | -21.55 | -7.1 | -0.10 |  |
| O=c1cc(-c2ccccc2)oc2cccc(O)c12 [PRIMULETIN] | -14.55 | 3.1 | 0.05 |  |
| COc1cc2c(cc1OC)-c1c(oc3cc(O)cc(O)c3c1=O)CO2 [APOTOXICAROL] | 1.64 | 10.7 | 0.16 |  |
| C[C@H]1O[C@H](OC2[C@@H](O)[C@@H](O)C(O)[C@H](O)[C@H]2O)[C@@H](N)C[C@@H]1N=C(N)C(=O)O.Cl (stereo partly shown) [KASUGAMYCIN HYDROCHLORIDE] | 47.53 | -1.2 | -0.02 |  |
| CC(C(=O)O)[C@H]1CCC2C3CC=C4C[C@@H](O)CC[C@]4(C)C3CC[C@@]21C (stereo partly drawn) [3beta-HYDROXY-23,24-BISNORCHOL-5-ENIC ACID] | -20.26 | -63.2 | -0.71 |  |
| CN[C@@H]1[C@H](O)[C@H](NC)[C@H]2O[C@@]3(O)C(=O)C[C@@H](C)O[C@H]3O[C@@H]2[C@H]1O.Cl [SPECTINOMYCIN HYDROCHLORIDE] | -6.16 | -42.8 | -0.51 |  |
| COc1ccc(-c2coc3cc(O)cc(O)c3c2=O)cc1 [BIOCHANIN A] | 14.14 | 6.9 | 0.10 |  |
| COc1ccc(/C=C/C(=O)c2cc(O)ccc2O)cc1 [2',5'-DIHYDROXY-4-METHOXYCHALCONE] |  |  |  | Inhibition (%) (Cryptosporidium parvum; 10 µM): -23.93; Hs18S ΔCT (HCT-8 host cells (Hs18S)): -0.46; Cytotoxicity (%) (HCT-8 host cells (Hs18S); 10 µM): -37.7 |
| C[C@@]1(O)CCOC(=O)C1 [MEVALONIC ACID LACTONE] | 26.69 | 16.5 | 0.26 |  |
| C[C@@H]1[C@H](O)[C@@H](C)/C=C/C=C/CC/C=C/C=C/C=C/C=C/C(O[C@H]2O[C@H](C)[C@@H](O)[C@H](N)[C@@H]2O)CC2O[C@](O)(CC(O)C(O)CCC(O)CC(O)CC(O)CC(=O)O[C@H]1C)CC(O)C2C(=O)O (stereo partly shown) [NYSTATIN] | 34.97 | 51.7 | 1.05 |  |
| NC(=O)CC[C@H](N)C(=O)O [GLUTAMINE (D)] | 2.46 | -11.8 | -0.16 |  |
| COC(=O)/C(C)=C\C[C@@]12OC(C)(C)[C@@H]3C[C@@H](C=C4C(=O)c5c(OC)c6c(c(CC=C(C)C)c5O[C@]431)O[C@](C)(CCC=C(C)C)C=C6)C2=O [METHYL GAMBOGATE METHYL ETHER] | 23.61 | 22.4 | 0.37 |  |
| CC1(C)CC2C1CC[C@]1(C)CCC3C(C(=O)O)CC(=O)O[C@@]32C1 (stereo partly shown) [3-HYDROXY-4-(SUCCIN-2-YL)-CARYOLANE delta-LACTONE] | 51.45 | 28.8 | 0.49 |  |
| COc1cc2c3cc1Oc1cc(ccc1O)C[C@@H]1c4c(cc(OC)c(O)c4Oc4ccc(cc4)C[C@@H]3N(C)CC2)CC[N+]1(C)C.Cl.O.O.O.O.O.[Cl-] [TUBOCURARINE CHLORIDE] | 37.53 | -22.2 | -0.29 |  |
| COC(=O)C1=CO[C@@H](O[C@@H]2O[C@H](CO)[C@@H](O)[C@H](O)[C@H]2O)[C@H]2[C@@H]1C(=O)C[C@@H]2C [VERBENALIN] | -4.48 | 81.7 | 2.45 |  |
| CC(=O)O[C@H]1CC[C@]2(C)C3=C(CC[C@H]2C1(C)C)[C@]1(C)CC[C@H]([C@H](C)CCC=C(C)C)[C@@]1(C)CC3 [LANOSTEROL ACETATE] | -3.78 | -2.8 | -0.04 |  |
| C=C[C@@](C)(O)CC[C@H]1C(=C)C[C@H](O)[C@H]2C(C)(C)CCC[C@]12C [LARIXOL] | 31.41 | 2.2 | 0.03 |  |
| CC(=O)O[C@@H]1CC2C(C)(C)C(=O)C3OC3[C@]2(C)C2CC[C@@]3(C)[C@H](c4ccoc4)OC(=O)C4OC43[C@@]21C (stereo partly shown) [EPOXYGEDUNIN] | 29.04 | -37.3 | -0.46 |  |
| O=C(O)C1=C[C@@H](O)[C@@H](O)[C@H](O)C1 [SHIKIMIC ACID] |  |  |  | inhibition at 10 µM (Cryptosporidium parvum; Cryptosporidium parvum, HCT-8, primary screening at 10 uM, read-out: Inhibition (%)): 10.3%; Hs18S ΔCT (HCT-8 host cells (Hs18S); human, 41 h, 10 μM): 0.06 |
| CC(C)=CCC/C(C)=C/CC/C(C)=C/CC/C(C)=C/CC/C(C)=C/CC/C(C)=C/CC/C(C)=C/CC/C(C)=C/CC/C(C)=C/CO [SOLANESOL] | -25.87 | 10.5 | 0.16 |  |
